From the supplement of paper PMC10307832

Assays:
Assay in all cases: relative viability (nuclei count vs DMSO), 5 days (fraction); higher = more cells survive
Metformin + Vorinostat = compound: CN(C)C(=N)NC(=N)N [Metformin] + O=C(CCCCCCC(=O)Nc1ccccc1)NO [Vorinostat] (partner 1 µM)
In short: (§1)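 Relative viability equals treated-well nuclei counts divided by vehicle-well nuclei counts. Counts came from 4× images of lung cancer cell lines grown in 1536-well plates for 5 days after pin-tool dosing on the day after seeding. Dosing used one drug alone or a fixed anchor-drug dose plus five library-drug doses (not always all listed) in √10 steps, and values are medians of duplicate plates.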

Apatinib + Navitoclax = compound: N#CC1(c2ccc(NC(=O)c3cccnc3NCc3ccncc3)cc2)CCCC1 [Apatinib] + CC1(C)CCC(c2ccc(Cl)cc2)=C(CN2CCN(c3ccc(C(=O)NS(=O)(=O)c4ccc(N[C@H](CCN5CCOCC5)CSc5ccccc5)c(S(=O)(=O)C(F)(F)F)c4)cc3)CC2)C1 [Navitoclax] (partner 0.5 µM)
In short: as §1

Metformin + OSI-027 = compound: CN(C)C(=N)NC(=N)N [Metformin] + COc1cccc2cc(-c3nc([C@H]4CC[C@H](C(=O)O)CC4)n4ncnc(N)c34)[nH]c12 [OSI-027] (partner 0.5 µM)
In short: as §1

Apatinib + Linsitinib = compound: N#CC1(c2ccc(NC(=O)c3cccnc3NCc3ccncc3)cc2)CCCC1 [Apatinib] + C[C@]1(O)C[C@@H](c2nc(-c3ccc4ccc(-c5ccccc5)nc4c3)c3c(N)nccn32)C1 [Linsitinib] (partner 1 µM)
In short: as §1

Row | Cell Line | relative viability (Metformin + Vorinostat; first compound 10 µM) | relative viability (Metformin + Vorinostat; first compound 31.62 µM) | relative viability (Metformin + Vorinostat; first compound 100 µM) | relative viability (Metformin + Vorinostat; first compound 316.23 µM) | relative viability (Metformin + Vorinostat; first compound 1000 µM) | relative viability (Apatinib + Navitoclax; first compound 0.08 µM) | relative viability (Apatinib + Navitoclax; first compound 0.253 µM) | relative viability (Apatinib + Navitoclax; first compound 0.8 µM) | relative viability (Apatinib + Navitoclax; first compound 2.53 µM) | relative viability (Apatinib + Navitoclax; first compound 8 µM) | relative viability (Metformin + OSI-027; first compound 10 µM) | relative viability (Metformin + OSI-027; first compound 31.62 µM) | relative viability (Metformin + OSI-027; first compound 100 µM) | relative viability (Metformin + OSI-027; first compound 316.23 µM) | relative viability (Metformin + OSI-027; first compound 1000 µM) | relative viability (Apatinib + Linsitinib; first compound 0.08 µM) | relative viability (Apatinib + Linsitinib; first compound 0.253 µM) | relative viability (Apatinib + Linsitinib; first compound 0.8 µM) | relative viability (Apatinib + Linsitinib; first compound 2.53 µM) | relative viability (Apatinib + Linsitinib; first compound 8 µM)
1 | NCI-H2085 | 0.733 | 0.747 | 0.775 | 0.788 | 0.812 | 1.18 | 1.23 | 1.18 | 1.05 | 0.949 | 0.649 | 0.54 | 0.721 | 0.718 | 0.703 | 0.879 | 0.987 | 0.949 | 0.745 | 0.815
2 | HCC-78 |  | 0.479 | 0.559 | 0.516 | 0.417 | 0.884 | 0.631 | 0.821 | 0.58 | 0.648 | 0.466 | 0.49 | 0.362 | 0.426 | 0.422 | 0.631 | 0.395 | 0.536 | 0.405 | 0.401
3 | LCLC-97TM1 |  | 0.675 | 0.711 | 0.601 | 0.704 | 0.485 | 0.401 | 0.369 | 0.397 | 0.18 | 0.647 | 0.58 | 0.537 | 0.487 | 0.711 | 0.224 | 0.169 | 0.173 | 0.164 | 0.142
4 | NCI-H441 |  | 0.513 | 0.69 | 0.51 | 0.866 | 1.07 | 0.5 | 0.728 | 0.519 | 0.31 |  | 0.665 | 0.519 | 0.393 | 0.46 | 0.596 | 0.61 | 0.628 | 0.422 | 0.303
5 | NCI-H1651 | 0.505 | 0.652 | 0.568 | 0.614 | 0.608 | 1.02 | 1.22 | 0.97 | 0.928 | 0.867 | 0.904 | 1.02 | 1.03 | 0.954 | 1.1 | 1.13 | 1.13 | 0.895 | 0.91 | 0.784
6 | NCI-H1944 | 0.465 | 0.651 | 0.571 | 0.59 | 0.631 | 1.04 | 1.06 | 0.976 | 0.974 | 0.965 | 0.428 | 0.401 | 0.402 | 0.425 | 0.455 | 1.19 | 1.22 | 1.06 | 1.25 | 1.26
